In patent US4927829A, “Heterocyclic compounds and antiulcer agents” (Shionogi & Co., Ltd., priority 1988, dated 1990):
Read-outs that look alike come from different tables or passages of the source.

Experiments:
stress ulcer = assay: Effect on stress ulcer (water-immersion restraint), oral; assay type: in vivo, SD rats; details: Rattus norvegicus, read-out: Inhibition rate (stress ulcer)
Description: Male SD rats (body weight: 260-290 g) which had fasted for 24 hours were placed in a wire net-restraint cage and immersed up to the breast in water at 23° C. After 7 hours, the animals were sacrificed, and the stomach were excised. […] The test compound was suspended in 5% gum arabic solution and orally administered 30 minutes before the stress load.
Cimetidine was used as control drug.

mice = assay: Acute toxicity test, intraperitoneal, mice; assay type: in vivo; details: n=5-6, up to 500 mg/kg
Description: From the above-mentioned results it is evident that the antiulcer activity of the compounds (I) of this invention was about ten times as potent as that of control drug.

[1] = oral, 30 minutes before stress load, male SD rats, 23° C. water immersion, 7 hours
[2] = 30 mg/kg, oral, 30 minutes before stress load, male SD rats, 23° C. water immersion, 7 hours

SMILES	inhibition in vivo at 3 mg/kg (stress ulcer; [1])	inhibition in vivo at 10 mg/kg (stress ulcer; [1])	inhibition in vivo at 30 mg/kg (stress ulcer; [2])	acute toxicity (dead cases) (mice)	inhibition in vivo at 30 mg/kg (stress ulcer; po, 7 h)	inhibition in vivo at 1 mg/kg (stress ulcer; 1 mg/kg, oral, 30 minutes before stress load, male SD rats, 23° C. water immersion, 7 hours)
O=C(Sc1cccn2c(=O)ccnc12)N1CCCCC1 [Example 18]	80%	76%	–	–	–	–
CCOC(=O)c1cnc2c(SC(=O)N3CCCCC3)cccn2c1=O [Example 13]	34%	70%	81%	–	–	–
O=C(Sc1cccn2c(=O)ccnc12)N1CCOCC1 [Example 9]	33%	66%	80%	–	–	–
O=C(Sc1cccn2c(=O)ccnc12)N1CCSCC1 [Example 7]	46%	77%	71%	no dead case even at a dose of 500 mg/kg	–	–
O=C(Sc1cccn2c(=O)ccnc12)N1CCSC1 [Example 17]	74%	72%	70%	no dead case even at a dose of 500 mg/kg	–	–
CN/C(=N/CCSCc1nc[nH]c1C)NC#N [Cimetidine, reference compound]	–	–	–	–	56%	–
O=C(Sc1cccn2c(=O)ccnc12)N1CCCC1 [Example 19]	–	45%	–	–	–	–
CCOC(=O)c1cnc2c(SC(=O)N3CCCC3)cccn2c1=O [Example 16]	40%	62%	85%	–	–	–
CCOC(=O)c1cnc2c(SC(=O)N3CCSC3)cccn2c1=O [Example 14]	50%	68%	89%	no dead case even at a dose of 500 mg/kg	–	45%
